Assay results as given in ChEMBL document CHEMBL6087476, “Positive Charge-Concentrated Dimeric Lipopeptides with Enhanced Protease Resistance: A Potential Solution for Systemic Bacterial Infections” (J Med Chem, 2025).
≈ marks a conversion by molar mass, not a printed value. Calls of active or inactive are those of the source. No cut-off for these calls is given here.

How the values were obtained:
Mus musculus [1] = assay: Anti-inflammatory activity against Escherichia coli ATCC 25922-induced peritonitis ICR mouse model assessed as decrease in TNF-alpha level in serum spleen at 10 mg/kg, ip measured after 12 hrs; type: functional, organism-based
Escherichia coli [2] = assay: Antimicrobial activity against Escherichia coli ATCC 25922 assessed as increase in absorbance incubated for 4 hrs in presence of 50% serum; type: functional, organism-based
Escherichia coli [3] = assay: Antimicrobial activity against Escherichia coli ATCC 25922 assessed as increase in absorbance at 8 mg/ml incubated for 8 hrs in presence of chymotrypsin; type: functional, organism-based
Chymotrypsin = Chymotrypsin (Homo sapiens, UniProt Q99895+P17538+P40313+Q6GPI1); assay: Stability of compound assessed as chymotrypsin (unknown origin)-mediated compound structural integrity change at 8 mg/ml incubated for 1 to 8 hrs by 16.5% tricine-SDS-PAGE analysis; type: ADME, protein assay; conditions: time 1-8 hrs
[4] = Toxicity in ICR mouse assessed as blood urea nitrogen (BUN) level in serum at 5 to 20 mg/kg, ip measured after 3 days; type: organism-based; conditions: in vivo, 72 h, dose 5-20 mg/kg, time 3 day
Escherichia coli [5] = assay: Antibacterial activity against Escherichia coli ATCC 25922 injected intraperitoneally in ICR mouse assessed as reduction bacterial load in liver at 10 mg/kg, ip measured after 12 hrs by H and E staining based assay; type: functional, organism-based
Escherichia coli [6] = assay: Antibacterial activity against Escherichia coli ATCC 25922 injected intraperitoneally in ICR mouse assessed as reduction bacterial load in kidney at 10 mg/kg, ip measured after 12 hrs by H and E staining based assay; type: functional, organism-based
Escherichia coli [7] = assay: Antibacterial activity against Escherichia coli ATCC 25922 injected intraperitoneally in ICR mouse assessed as reduction bacterial load in spleen at 10 mg/kg, ip measured after 12 hrs by H and E staining based assay; type: functional, organism-based
Cell membrane [8] = assay: Induction of cytoplasmic membrane (CM) permeabilization in Escherichia coli ATCC 25922 assessed as utilization of ONPG at 1/2 MIC; type: subcellular
Escherichia coli [9] = assay: Induction of membrane damage in Escherichia coli ATCC 25922 assessed as damaged membrane surface (irregular vesicles protrusions) at 8 uM measured after 1 hr incubation by SEM analysis; type: functional, organism-based
Cell membrane [10] = assay: Induction of depolarization of cytoplasmic membrane (CM) in Escherichia coli ATCC 25922 assessed as fluorescence changes at 1/2 to 3 times of MIC by fluorescent probe DiSC3-5 assay; type: subcellular; conditions: time 1000-3000 sec
[11] = Cytotoxicity against porcine IPEC-J2 cells assessed as cell death measured after 18 to 24 hrs by MTT assay; type: functional; conditions: Sus scrofa, time 18-24 hrs
[12] = Toxicity in ICR mouse assessed as alkaline phosphatase (ALP) level in serum at 5 to 20 mg/kg, ip measured after 3 days; type: organism-based; conditions: in vivo, 72 h, dose 5-20 mg/kg, time 3 day
[13] = Toxicity in ICR mouse assessed as humpbacking at 20 mg/kg, ip measured after 1 hr; type: organism-based; conditions: in vivo
Escherichia coli [14] = assay: Bactericidal activity against Escherichia coli ATCC 25922 assessed as reduction in bacterial viability at 4 uM measured within 30 mins; type: functional; conditions: 0.5 h
[15] = Toxicity in ICR mouse assessed as reduced mobility at 20 mg/kg, ip measured within 1 hr; type: organism-based; conditions: in vivo
Escherichia coli [16] = assay: Reduction in intracellular ATP level in Escherichia coli ATCC 25922 at 2 uM measured after 1 hr incubation by Enhanced ATP assay kit; type: functional; design: scale not given: the % may be the effect or the level left
Escherichia coli [17] = assay: Antimicrobial activity against Escherichia coli ATCC 25922 assessed as increase in absorbance at MIC concentration in presence of […] ug/ml Lipopolysaccharide incubated for 8 hrs; type: functional, organism-based; conditions: dose 64.0 µg/ml
Staphylococcus aureus = assay: Antimicrobial activity against methicillin-resistant Staphylococcus aureus 43300 assessed as increase in absorbance incubated for 20 to 22 hrs; type: functional; conditions: time 20-22 hrs
RAW264.7 = assay: Cytotoxicity against mouse RAW264.7 cells assessed as cell death measured after 18 to 24 hrs by MTT assay; type: functional; conditions: time 18-24 hrs
Escherichia coli [18] = assay: Antimicrobial activity against Escherichia coli ATCC 25922 assessed as increase in absorbance at 8 mg/ml incubated for 8 hrs in presence of trypsin; type: functional, organism-based
[19] = Toxicity in ICR mouse assessed as kidney weight change at 5 to 20 mg/kg, ip measured after 3 days; type: organism-based; conditions: in vivo, 72 h, dose 5-20 mg/kg, time 3 day
Mus musculus [20] = assay: Anti-inflammatory activity against Escherichia coli ATCC 25922-induced peritonitis ICR mouse model assessed as decrease in IL-6 level in serum spleen at 10 mg/kg, ip measured after 12 hrs; type: functional, organism-based
Escherichia coli [21] = assay: Antibiofilm activity against Escherichia coli ATCC 25922 biofilm assessed as removal of matured biofilm at 16 uM; type: functional, organism-based
Escherichia coli [22] = assay: Induction of membrane damage in Escherichia coli ATCC 25922 assessed as damaged membrane surface by analysing leakage (hollow interiors) at 8 uM measured after 1 hr incubation by TEM analysis; type: functional, organism-based
Escherichia coli [23] = assay: Antimicrobial activity against Escherichia coli ATCC 25922 assessed as increase in absorbance incubated for 4 hrs in presence of 25% serum; type: functional, organism-based
Escherichia coli [24] = assay: Antibacterial activity against Escherichia coli ATCC 25922 injected intraperitoneally in ICR mouse assessed as reduction in symptoms by measuring thickened respiratory membrane in lung at 10 mg/kg, ip measured after 12 hrs by H and E staining based assay; type: functional, organism-based
[25] = Toxicity in ICR mouse assessed as reduced mobility at 20 mg/kg, ip measured after 1 hr; type: organism-based; conditions: in vivo
Escherichia coli [26] = assay: Antimicrobial activity against Escherichia coli ATCC 25922 assessed as increase in absorbance incubated for 20 to 22 hrs in presence of Mg2+ physiological salt; type: functional, organism-based; conditions: time 20-22 hrs
Mus musculus [27] = assay: Anti-inflammatory activity against Escherichia coli ATCC 25922-induced peritonitis ICR mouse model assessed as decrease in IL-1 beta level in serum spleen at 10 mg/kg, ip measured after 12 hrs; type: functional, organism-based
Escherichia coli [28] = assay: Antimicrobial activity against Escherichia coli ATCC 25922 assessed as increase in absorbance at 8 mg/ml incubated for 8 hrs in presence of pepsin; type: functional, organism-based
Escherichia coli [29] = assay: Bactericidal activity against Escherichia coli ATCC 25922 assessed as reduction in bacterial viability at 4 uM measured within 1 hr; type: functional
Escherichia coli [30] = assay: Antibacterial activity against Escherichia coli ATCC 25922 injected intraperitoneally in ICR mouse assessed as reduction in symptoms by measuring disorganized hepatic cords in liver at 10 mg/kg, ip measured after 12 hrs by H and E staining based assay; type: functional, organism-based
Enterococcus faecalis = assay: Antimicrobial activity against Enterococcus faecalis 29212 assessed as increase in absorbance incubated for 20 to 22 hrs; type: functional; conditions: time 20-22 hrs
[31] = Toxicity in ICR mouse assessed as slight manifestation of stooping at 20 mg/kg, ip measured within 1 hr; type: organism-based; conditions: in vivo
Pseudomonas aeruginosa = assay: Antimicrobial activity against Pseudomonas aeruginosa 27853 assessed as increase in absorbance incubated for 20 to 22 hrs; type: functional; conditions: time 20-22 hrs
[32] = Toxicity in ICR mouse assessed as aspartate aminotransferase (AST) level in serum at 5 to 20 mg/kg, ip measured after 3 days; type: organism-based; conditions: in vivo, 72 h, dose 5-20 mg/kg, time 3 day
Acinetobacter baumannii = assay: Antimicrobial activity against Acinetobacter baumannii AB1902 assessed as increase in absorbance incubated for 20 to 22 hrs; type: functional; conditions: time 20-22 hrs

CCCCCCCCCC(=O)NCCCC[C@H](N)C(=O)NCC(=O)NCC(=O)NCC(=O)N[C@H](CCCNC(=N)N)C(=O)N[C@@H](CCCNC(=N)N)C(=O)N[C@@H](CCCNC(=N)N)C(=O)N1CCC[C@H]1C(=O)N[C@@H](CSSC[C@H](NC(=O)[C@@H]1CCCN1C(=O)[C@H](CCCNC(=N)N)NC(=O)[C@H](CCCNC(=N)N)NC(=O)[C@@H](CCCNC(=N)N)NC(=O)CNC(=O)CNC(=O)CNC(=O)[C@@H](N)CCCCNC(=O)CCCCCCCCC)C(=O)O)C(=O)O
Activity (Mus musculus [1]): Active | Activity (Escherichia coli [2]): Active | Activity (Escherichia coli [3]): Active; Negligible Alteration In Mic Values Found | Stability (Chymotrypsin): Stable | Activity [4]: Non-toxic | Activity (Escherichia coli [5]): Active | Activity (Escherichia coli [6]): Active | Activity (Escherichia coli [7]): Active | Activity (Cell membrane [8]): Active | Activity (Escherichia coli [9]): Active | Activity (Cell membrane [10]): Time-dependent-effect | IC10 [11]: 256 µM | Activity [12]: Non-toxic | Activity [13]: Non-toxic | Activity (Escherichia coli [14]): ~80% | Activity [15]: Toxic | Activity (Escherichia coli [16]): ~40% | Activity (Escherichia coli [17]): inactive | MIC (Staphylococcus aureus): 4 µM (≈ 9.12 µg/mL) | IC10 (RAW264.7): 256 µM | Activity (Escherichia coli [18]): Active; Negligible Alteration In Mic Values Found | Activity [19]: Non-toxic | Activity (Mus musculus [20]): Active | Activity (Escherichia coli [21]): Active | Activity (Escherichia coli [22]): Active | Activity (Escherichia coli [23]): Active | Activity (Escherichia coli [24]): Active | Activity [25]: Non-toxic | Activity (Escherichia coli [26]): Active; C-C10)C-C Demonstrated Superior Physiological Salt Tolerance In Comparison To (N-C10)C-C | Activity (Mus musculus [27]): Active | Activity (Escherichia coli [28]): Active; Negligible Alteration In Mic Values Found | Activity (Escherichia coli [29]): 100% | Activity (Escherichia coli [30]): Active | MIC (Enterococcus faecalis): 4 µM (≈ 9.12 µg/mL) | Activity [31]: Toxic | MIC (Pseudomonas aeruginosa): 4 µM (≈ 9.12 µg/mL) | Activity [32]: Non-toxic | MIC (Acinetobacter baumannii): 8 µM (≈ 18.2 µg/mL)
